This is an account of results in ChEMBL document CHEMBL5365402, “Phytochemical investigation of Asarum sieboldii var. seoulense and the phenotypic profiles of its constituents against a Parkinson's Disease olfactory cell line” (Bioorg Med Chem Lett, 2023).

Activity calls are given as the source filed them. The rule behind the calls is not given here.

Common to all, as to format: functional, subcellular
Test [1] concerns ONS. The test is described as follows: Anti-parkinson's disease activity in human ONS cells assessed as alpha-tubulin marker intensity in outer region of cytoplasm at 5 uM by heat map analysis.
For test [2], the system named is ONS. The test is described as follows: Anti-parkinson's disease activity in human ONS cells assessed as early endosome marker intensity in inner region of cytoplasm at 5 uM by heat map analysis.
The test system of test [3] is ONS. The test is described as follows: Anti-parkinson's disease activity in human ONS cells assessed as alpha-tubulin marker intensity in cytoplasm at 5 uM by heat map analysis.
In test [4] the test system is ONS. The test is described as follows: Anti-parkinson's disease activity in human ONS cells assessed as lysosome marker intensity in inner region of cytoplasm at 5 uM by heat map analysis.
The test system of test [5] is ONS. The test is described as follows: Anti-parkinson's disease activity in human ONS cells assessed as early endosome marker intensity in cytoplasm at 5 uM by heat map analysis.
For test [6], the system named is ONS. The test is described as follows: Anti-parkinson's disease activity in human ONS cells assessed as early endosome marker intensity in outer region of cytoplasm at 5 uM by heat map analysis.
Test [7] relates to ONS. The test is described as follows: Anti-parkinson's disease activity in human ONS cells assessed as lysosome marker intensity in cytoplasm at 5 uM by heat map analysis.
Test [8] deals with ONS. The test is described as follows: Anti-parkinson's disease activity in human ONS cells assessed as lysosome marker intensity in outer region of cytoplasm at 5 uM by heat map analysis.
Test [9] relates to ONS. The test is described as follows: Anti-parkinson's disease activity in human ONS cells assessed as alpha-tubulin marker intensity in inner region of cytoplasm at 5 uM by heat map analysis.
The subject of test [10] is ONS. The test is described as follows: Anti-parkinson's disease activity in human ONS cells assessed as LC3B marker intensity in cytoplasm at 5 uM by heat map analysis.
In test [11] the test system is ONS. The test is described as follows: Anti-parkinson's disease activity in human ONS cells assessed as negative mitochondrial marker intensity in inner region of cytoplasm at 5 uM by heat map analysis.
For test [12], the system named is ONS. The test is described as follows: Anti-parkinson's disease activity in human ONS cells assessed as LC3B marker intensity in inner region of cytoplasm at 5 uM by heat map analysis.
For test [13], the system named is ONS. The test is described as follows: Anti-parkinson's disease activity in human ONS cells assessed as negative mitochondrial marker intensity in cytoplasm at 5 uM by heat map analysis.
Test [14] deals with ONS. The test is described as follows: Anti-parkinson's disease activity in human ONS cells assessed as LC3B marker intensity in outer region of cytoplasm at 5 uM by heat map analysis.
Test [15] relates to ONS. The test is described as follows: Anti-parkinson's disease activity in human ONS cells assessed as negative mitochondrial marker intensity in outer region of cytoplasm at 5 uM by heat map analysis.

Take `O=C(O)c1ccc(O)cc1`: the result with ONS [1], with ONS [2], with ONS [3], with ONS [4], in the test with ONS [5] and in the test on ONS [6] was Active. In addition, the result in the test on ONS [7], in the test on ONS [8] and in the test on ONS [9] was Active.
In the case of `C/C=C/C=C/CC/C=C/C=C/C(=O)NCC(C)C`, the outcome with ONS [10], with ONS [11], in the test on ONS [12], in the test with ONS [13], in the test with ONS [14] and in the test with ONS [15] was Active.
As to `CCC(=O)c1cc2c(cc1OC)OCO2`, the result with ONS [11], in the test with ONS [2], with ONS [4], in the test with ONS [5], with ONS [6] and with ONS [13] was inactive. For the same compound, the outcome with ONS [7], with ONS [15] and in the test on ONS [8] was inactive.
For `COc1cc(/C=C/C(=O)O)ccc1O`, the outcome in the test on ONS [1], in the test on ONS [2], with ONS [3], with ONS [4], in the test with ONS [5] and in the test on ONS [6] was Active. The result with ONS [7], with ONS [8] and in the test on ONS [9] was Active.
`COc1cc(C(=O)O)ccc1O`: the result in the test with ONS [1], with ONS [2], in the test with ONS [3], with ONS [4], with ONS [5] and in the test with ONS [6] was Active. Besides, the result with ONS [7], in the test with ONS [8] and in the test on ONS [9] was Active.
`C/C=C\CC/C=C/C=C/C(=O)NCC(C)C`: the result in the test on ONS [1], in the test with ONS [2], in the test with ONS [3], with ONS [4], in the test with ONS [5] and with ONS [6] was Active. Moreover, the outcome in the test with ONS [7], in the test with ONS [8] and in the test with ONS [9] was Active.
On to `C=CCc1cc(OC)c(O)c(OC)c1`, for which the outcome in the test with ONS [1], in the test with ONS [2], in the test on ONS [3], in the test on ONS [4], in the test on ONS [5] and with ONS [6] was Active. The result with ONS [7], in the test on ONS [8] and in the test with ONS [9] was Active.
With `COc1cc([C@H]2OC[C@H]3[C@@H]2CO[C@@H]3c2ccc3c(c2)OCO3)ccc1O`, the outcome in the test on ONS [10], in the test on ONS [11], with ONS [12], in the test on ONS [13], in the test on ONS [14] and in the test with ONS [15] was Active.
`CCC(=O)c1cc(OC)c(O)cc1O`: the result in the test on ONS [1], with ONS [2], in the test on ONS [3], in the test with ONS [4], in the test with ONS [5] and in the test with ONS [6] was Active. In addition, the outcome with ONS [7], in the test with ONS [8] and with ONS [9] was Active.
In the case of `COc1cc([C@H]2OC[C@H]3[C@@H]2CO[C@H]3c2ccc3c(c2)OCO3)ccc1O`, the outcome with ONS [11], in the test with ONS [2], in the test with ONS [4], with ONS [5], with ONS [6] and in the test with ONS [13] was inactive. The outcome with ONS [7], with ONS [15] and in the test with ONS [8] was inactive.
For `C=CCc1cc2c(cc1OC)OCO2`, the outcome in the test with ONS [1], in the test on ONS [2], with ONS [3], with ONS [4], with ONS [5] and with ONS [6] was Active. In addition, the outcome in the test on ONS [7], with ONS [8] and in the test with ONS [9] was Active.
With `O=C(O)/C=C/c1ccc(O)cc1`, the outcome in the test with ONS [11], in the test on ONS [2], in the test with ONS [4], in the test on ONS [5], in the test with ONS [6] and in the test with ONS [13] was inactive. Moreover, the outcome with ONS [7], in the test with ONS [15] and with ONS [8] was inactive.
For `C=CCc1cc(OC)c(OC)c(OC)c1`, the result with ONS [1], in the test on ONS [2], in the test with ONS [3], in the test on ONS [4], in the test on ONS [5] and with ONS [6] was Active. Moreover, the result with ONS [7], in the test with ONS [8] and in the test with ONS [9] was Active.
With `C/C=C\C=C/CC/C=C/C=C/C(=O)NCC(C)C`, the result in the test on ONS [1], in the test on ONS [2], in the test with ONS [3], with ONS [4], with ONS [5] and in the test on ONS [6] was Active. In addition, the outcome with ONS [7], in the test with ONS [8] and with ONS [9] was Active.
For `CCC(=O)c1ccc2c(c1)OCO2`, the outcome with ONS [1], with ONS [2], with ONS [3], in the test with ONS [4], in the test with ONS [5] and in the test on ONS [6] was Active. For the same compound, the outcome with ONS [7], in the test with ONS [8] and in the test with ONS [9] was Active.
Take `c1cc2c(cc1[C@H]1OC[C@H]3[C@@H]1CO[C@H]3c1ccc3c(c1)OCO3)OCO2`: the result in the test on ONS [1], with ONS [2], in the test with ONS [3], with ONS [4], with ONS [5] and in the test with ONS [6] was Active. In addition, the outcome with ONS [7], in the test with ONS [8] and in the test on ONS [9] was Active.
Consider `c1cc2c(cc1[C@H]1OC[C@H]3[C@@H]1CO[C@@H]3c1ccc3c(c1)OCO3)OCO2`, for which the outcome in the test with ONS [11], in the test with ONS [2], in the test on ONS [4], in the test on ONS [5], with ONS [6] and in the test on ONS [13] was inactive. Further, the result in the test on ONS [7], with ONS [15] and in the test on ONS [8] was inactive.
Take `CCC(=O)c1cc2c(cc1O)OCO2`: the outcome in the test with ONS [11], in the test with ONS [2], in the test on ONS [4], in the test on ONS [5], with ONS [6] and in the test with ONS [13] was inactive. Also, the result in the test on ONS [7], in the test with ONS [15] and with ONS [8] was inactive.
Take `C/C=C/C=C\CC/C=C/C=C/C(=O)NCC(C)C`: the result in the test with ONS [10], in the test with ONS [11], in the test with ONS [12], in the test with ONS [13], with ONS [14] and in the test with ONS [15] was Active.
